Results on three compounds are retold here after ChEMBL document CHEMBL5137093, “Improving Drug Delivery While Tailoring Prodrug Activation to Modulate Cmax and Cmin by Optimization of (Carbonyl)oxyalkyl Linker-Based Prodrugs of Atazanavir” (J Med Chem, 2022).

In brackets after ≈: the same amount, converted by molar mass.

Data set [1] is described as follows: AUClast in Sprague-Dawley rat at 3 ml/kg,po measured upto 24 hrs by UPLC-MS/MS analysis. It counts as ADME. Further details: time < 24 hrs, dose 3 ml/kg, route po. The settings on record: in vivo, 24 h.
Data set [2] in a line: Relative AUC ratio of Atazanavir in Sprague-Dawley rat at 3 ml/kg,po measured upto 24 hrs by UPLC-MS/MS analysis. It counts as ADME. The settings on record: in vivo.
Data set [3] can be described thus: Aqueous solubility of compound at pH 4 by UPLC analysis. The format is physicochemical.
Data set [4] is described as follows: Aqueous solubility of compound at pH 1 by UPLC analysis. It counts as physicochemical.
A short description of data set [5]: Ratio of Cmax/Cmin of Atazanavir in Sprague-Dawley rat at 3 ml/kg,po measured after 24 hrs by UPLC-MS/MS analysis. The format is ADME. The settings on record: in vivo.
Data set [6] in a line: Aqueous stability of the compound in acetate buffer at pH 4 assessed as compound half life measured after 24 hrs by UPLC analysis. The format is physicochemical. The settings on record: for half-life: acetate buffer, pH 4.
A short description of data set [7]: Fold ratio of total AUC of Atazanavir in Sprague-Dawley rat at 3 ml/kg,po measured upto 24 hrs by UPLC-MS/MS analysis. The settings on record: in vivo. The format is ADME.
Data set [8] is described as follows: Aqueous stability of the compound in phosphate buffer at pH 6.5 assessed as compound half life measured after 24 hrs by UPLC analysis. It counts as physicochemical. The settings on record: for half-life: phosphate buffer, pH 6.5.
A short description of data set [9]: Tmax in Sprague-Dawley rat at 3 ml/kg,po measured upto 24 hrs by UPLC-MS/MS analysis. The format is ADME. The settings on record: in vivo.
Data set [10] in a line: Cmax in Sprague-Dawley rat at 3 ml/kg,po measured upto 24 hrs by UPLC-MS/MS analysis. Further details: dose 3 ml/kg, time < 24 hrs, route po. The settings on record: in vivo, 24 h. The format is ADME.
Data set [11] in a line: Aqueous solubility of compound at pH 6.5 by UPLC analysis. The format is physicochemical.
Data set [12] is described as follows: Ratio of AUC of Atazanavir in Sprague-Dawley rat at 3 ml/kg,po measured upto 24 hrs by UPLC-MS/MS analysis. It counts as ADME. The settings on record: in vivo.
Data set [13] is described as follows: Aqueous stability of the compound in HCL at pH 1 assessed as compound half life measured after 24 hrs by UPLC analysis. The format is physicochemical. The settings on record: aqueous HCl, pH 1.
A short description of data set [14]: Relative Cmax ratio of Atazanavir in Sprague-Dawley rat at 3 ml/kg,po measured upto 24 hrs by UPLC-MS/MS analysis. The settings on record: in vivo. The format is ADME.
Data set [15] can be described thus: AUClast in Sprague-Dawley rat at 30 ml/kg,po measured upto 24 hrs by UPLC-MS/MS analysis. The format is ADME. Further details: time < 24 hrs, dose 30 ml/kg, route po. The settings on record: in vivo.
A short description of data set [16]: Ratio of AUC of Atazanavir in Sprague-Dawley rat at 30 ml/kg,po measured upto 24 hrs by UPLC-MS/MS analysis. It counts as ADME. The settings on record: in vivo.
Data set [17] can be described thus: Relative AUC ratio of Atazanavir in Sprague-Dawley rat at 30 ml/kg,po measured upto 24 hrs by UPLC-MS/MS analysis. It counts as ADME. The settings on record: in vivo.
Data set [18] is described as follows: Relative Cmax ratio of Atazanavir in Sprague-Dawley rat at 30 ml/kg,po measured upto 24 hrs by UPLC-MS/MS analysis. It counts as ADME. The settings on record: in vivo.
The nature of data set [19]: Ratio of Cmax/Cmin of Atazanavir in Sprague-Dawley rat at 30 ml/kg,po measured after 24 hrs by UPLC-MS/MS analysis. The settings on record: in vivo. It counts as ADME.
Data set [20] in a line: Cmax in Sprague-Dawley rat at 30 ml/kg,po measured upto 24 hrs by UPLC-MS/MS analysis. It counts as ADME. Further details: time < 24 hrs, dose 30 ml/kg, route po. The settings on record: in vivo.
Data set [21] is described as follows: Tmax in Sprague-Dawley rat at 30 ml/kg,po measured upto 24 hrs by UPLC-MS/MS analysis. The settings on record: in vivo. The format is ADME.
Data set [22] can be described thus: Fold ratio of total AUC of Atazanavir in Sprague-Dawley rat at 30 ml/kg,po measured upto 24 hrs by UPLC-MS/MS analysis. The format is ADME. The settings on record: in vivo.
[23] abbreviates: aqueous medium, read-out: solubility.

Turning to `COC(=O)N[C@H](C(=O)N[C@@H](Cc1ccccc1)[C@H](CN(Cc1ccc(-c2ccccn2)cc1)NC(=O)[C@@H](NC(=O)OC)C(C)(C)C)OC(=O)OC(OC(=O)[C@@H](NC(=O)[C@@H](N)C(C)C)C(C)C)C(C)C)C(C)(C)C` (stereo in doubt; 6e), the AUClast in data set [1] amounted to 0.0005 µM·h. The Ratio is listed as 3.3 in [2]; 2936.7 in data set [5]; 3.3 in data set [7]; 0.0004 in data set [12]; 3.3 in data set [14]. For the same compound, the solubility in data set [3] (setting [23]) was over 1100 µg/mL; in [4] (setting [23]) it was over 1600 µg/mL; in data set [11] (buffer), 76 µg/mL (≈ 74.6 µM). Besides, the half-life is over 500 h in [6], 167 h in data set [8] and over 500 h in [13]. The Tmax in data set [9] (Sprague-Dawley, read-out: Tmax) was determined as 0.3 h. For the same compound, the highest level in data set [10] (Cmax) was 3 nM.
For `COC(=O)N[C@H](C(=O)N[C@@H](Cc1ccccc1)[C@H](CN(Cc1ccc(-c2ccccn2)cc1)NC(=O)[C@@H](NC(=O)OC)C(C)(C)C)OC(=O)OC(OC(=O)[C@H](C(C)C)N(C)C)C(C)C)C(C)(C)C` (stereo in doubt; 5g), the AUClast in data set [1] came to 0.996 µM·h. Also, the Ratio in [2] is on record as 4.4; in data set [5] it was 194.1; in data set [7], 7; in [12], 0.59; in data set [14], 2.1. The solubility is 140 µg/mL (≈ 148 µM) in data set [3] (setting [23]), over 420 µg/mL in data set [4] (buffer) and under 1 µg/mL in [11] (setting [23]). Besides, the half-life in data set [6], in [8] and in data set [13] was over 500 h in each case. Moreover, the Tmax in data set [9] (Sprague-Dawley, read-out: Tmax) came out at 0.7 h. The Cmax in data set [10] is 382 nM.
Turning to `COC(=O)N[C@H](C(=O)N[C@@H](Cc1ccccc1)[C@H](CN(Cc1ccc(-c2ccccn2)cc1)NC(=O)[C@@H](NC(=O)OC)C(C)(C)C)OC(=O)OC(OC(=O)[C@H](C(C)C)N(C)C)C(C)C)C(C)(C)C` (stereo in doubt; 5h), the AUC(0-t) at 24 h in data set [15] stood at 64.6 µM·h. The same compound registered an AUClast in data set [1] of 11.628 µM·h. Also, the Ratio is 11.8 in data set [2]; 22.7 in data set [5]; 42.1 in data set [7]; 10.81 in data set [16]; 0.29 in [17]; 0.14 in [18]. For the same compound, the Ratio in [19] is reported as 10.8; in [12] it was 2.57; in data set [22] it was 3.38; in data set [14] it was 2.7. Moreover, the solubility was 160 µg/mL (≈ 169 µM) in data set [3] (buffer) and over 1850 µg/mL in [4] (buffer). Further, the t1/2 in data set [6] (buffer, pH 4, 24 h, 24 h) worked out at 376.3 h; in [8] (buffer, pH 6.5, 24 h, 24 h) it was 334.3 h. Besides, the Tmax in data set [9] (po, 24 h) came out at 0.5 h; in data set [21], 3 h. The Cmax in [10] amounted to 1880 nM; in data set [20], 3580 nM.
